One assay concerns the target T1, FLT3 (Homo sapiens, UniProt P36888).
T1 construct: purchased Invitrogen (SelectScreen platform)
T1 sequence (P36888 27-993): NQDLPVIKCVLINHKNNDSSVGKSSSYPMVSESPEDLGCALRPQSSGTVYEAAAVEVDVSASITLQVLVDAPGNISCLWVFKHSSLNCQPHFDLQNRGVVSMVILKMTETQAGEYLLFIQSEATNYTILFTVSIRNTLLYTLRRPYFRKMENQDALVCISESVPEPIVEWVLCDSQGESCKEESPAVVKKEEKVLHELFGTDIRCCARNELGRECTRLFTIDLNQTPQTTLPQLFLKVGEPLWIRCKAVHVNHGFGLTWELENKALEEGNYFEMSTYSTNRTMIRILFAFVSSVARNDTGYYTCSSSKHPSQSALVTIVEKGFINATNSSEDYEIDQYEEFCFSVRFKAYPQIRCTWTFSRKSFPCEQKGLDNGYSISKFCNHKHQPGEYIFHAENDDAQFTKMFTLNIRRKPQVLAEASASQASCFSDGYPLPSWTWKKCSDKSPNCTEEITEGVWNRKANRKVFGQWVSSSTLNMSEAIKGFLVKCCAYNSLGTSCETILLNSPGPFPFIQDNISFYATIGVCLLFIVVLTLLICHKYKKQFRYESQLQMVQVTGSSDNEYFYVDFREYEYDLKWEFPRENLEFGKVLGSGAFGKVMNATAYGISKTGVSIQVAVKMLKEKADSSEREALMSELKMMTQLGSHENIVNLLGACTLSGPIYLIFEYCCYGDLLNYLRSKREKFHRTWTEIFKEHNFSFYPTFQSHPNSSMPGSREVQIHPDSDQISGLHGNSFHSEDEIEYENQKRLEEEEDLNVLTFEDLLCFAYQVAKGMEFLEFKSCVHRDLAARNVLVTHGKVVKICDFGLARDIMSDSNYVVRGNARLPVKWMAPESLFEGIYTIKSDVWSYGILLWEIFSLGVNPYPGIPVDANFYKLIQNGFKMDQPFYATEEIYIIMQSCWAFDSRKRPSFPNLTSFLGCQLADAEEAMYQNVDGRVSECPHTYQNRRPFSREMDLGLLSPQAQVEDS
Put plainly: SelectScreen FLT3 kinase dose response assay. Type of assay: biochemical. Particulars: ATP 100 micromolar; for EC50: dose response, 4 parameter Hill equation, read-out: FLT3 Inhibition EC50. On the procedure:
The terms “IC50” and “EC50” are used interchangeably. As used herein, “EC50” refers to nMolar concentration at median percent inhibition determined by dose respose (DR) assay. As used herein, the term “E1000” refers to percent inhibition at 1000 nMolar determined by assay.
Testing of the compounds described in this invention was carried out using the SelectScreen™ platform from Invitrogen, Inc. (Carlsbad. Calif., USA) and the details of its performance are readily viewed via the web by linking to: http://www.invitrogen.com/downloads/SelectScrn_Brochure.pdf.
Briefly, the approach is based on treating each specific kinase with a unique substrate and optical reporter system in the presence of ATP at 100 micromolar. In controls, the substrate is phosphorylated and a baseline optimal response is recorded.
The compounds were then re-tested by adding graded amounts of putative inhibitor which were added in 5 separate increments to generate a dose response curve. The latter is obtained by fitting to a 4 parameter Hill equation, a sigmoid saturation equation.
For the compounds of this invention, the experimental conditions were as follows. The 2× FLT3/Tyr 02 peptide mixture was prepared in 50 mM HEPES pH 7.5, 0.01 BRIJ-35, 10 mM MgCl2, 1 mM EGTA. The final 10 uL kinase reaction consists of 0.6-76.0 ng FLT3 and 2 uM Tyr 02 peptide in 50 mM HEPES pH 7.5, 0.01% BRIJ-35, 10 mM MgCl2, 1 mM EGTA. After 1 hour kinase reaction incubation, 5 uL of a 1:64 dilution of development reagent A was added.

Assay [1] relates to Raw264.7 (murine macrophage-like cells). Kind of assay: sulforhodamine B (SRB) cytotoxicity assay. Type of assay: cell-based. The following applies: Mus musculus, RAW264.7, 144 h; 25 μM highest concentration, diluted 1:5; 6 days; read-out: IC50 Measured Against Raw264.7 Cell Line. (In SRB staining, fixed cells bind dye roughly in proportion to their protein.)

As to `O=c1c2c(F)ccc3ncn(c4ccc5[nH]ncc5c14)c32` [(XVIII)], the inhibition at 1 µM at FLT3 (1000 nMolar compound, read-out: FLT3 Inhibition E1000 (percent inhibition at 1000 nMolar)) was 47%. At FLT3, the half-maximal effective concentration (EC50) worked out at 1.33 µM.

Turning to `Cc1nc2cc3nc(-c4cccs4)cnc3cc2n1C` [AGL-2043, reference compound], the “FLT3 Inhibition E1000 (percent inhibition at 1000 nMolar)” value on FLT3 (1000 nMolar compound) worked out at 93%. Also, on FLT3, the EC50 worked out at 0.038 µM.

In the case of `c1ccc(-c2n[nH]c3c2oc2ccccc23)cc1` [GTP-14564, reference compound], at FLT3 (1000 nMolar compound), the “FLT3 Inhibition E1000 (percent inhibition at 1000 nMolar)” value is 95%. On FLT3, the EC50 stood at 0.026 µM.

Consider `CCN(CC)CCNC(=O)c1c(C)[nH]c(/C=C2\C(=O)Nc3ccc(F)cc32)c1C` [Sunitinib, sunitinib, reference compound], for which, in assay [1], the IC50 turned out to be 0.763 µM.

The inhibition is the change of the read-out against control, counted positive when it falls. For orientation: EC50 means the midpoint of the concentration-response curve. As a reminder, the IC50 is the concentration needed to halve the response being measured.
